# Data from US20120183580A1, “Analgesic Composition for Transbuccal Administration” (priority 2011, published 2012).
# Where two headings read alike, the source gives them in different places. Where a SMILES comes first, the peptide text is derived from it.
# Assays:
# [1] = cited from earlier work; for bioavailability by the sublingual route: oxytocin in physiological saline solution
# rats [2] = experiment: elevated-plus maze test; conditions: rat, in vivo
# Description: Two opposite arms of the elevated-plus maze are enclosed by high walls (closed arms) while the other two are not (open arms). The test animals (rats) naturally prefer and spend more time in the closed aims.
# Swiss albino mice [3] = conditions: mouse, in vivo
# Procedure: Swiss albino mice (30-35 g) were injected with saline, the peptide (5 mg/kg, 50 mg/kg intraperitoneal) or morphine (0.5 mg/kg, 5 mg/kg, 50 mg/kg intraperitoneal). The experimenters are blind to the identity of the solutions. All mice were administered 5 mg charcoal (0.1 ml of 50 mg/ml charcoal solution) via oral gavage immediately after drug administration. At 30 min post-drug/charcoal administration, the mice were sacrificed by cervical dislocation and the GI tract was exposed and the location of the charcoal identified. The distance the charcoal traveled in the intestine from the stomach was measured and expressed as % of total length of the GI tract.
# Swiss albino mice [4] = test system: Swiss albino mice
# Procedure: Swiss albino mice (˜20-30 g) were first trained on the rotarod, which accelerated from 0-20 rpm over 5 min, prior to the experiment. Only mice that were capable of staying on the rotarod for the entire 5 min period were used in this experiment. Mice were either administered with the peptide (1 or 10 mg/kg, sublingual), or morphine (20 mg/kg, subcutaneous). After drug administration, the animals are placed on the rotarod and the time taken for the mice to slip was recorded (up to 5 min), and subsequently at 1 h, 2 h and 3 h post peptide, and at 30 min, 1 h 30 min and 2 h 30 min post morphine. Statistical comparison was done by either Student's t-test or one-way ANOVA.
# Swiss albino mice [5] = test system: Swiss albino mice; remark: listed apart in the source
# Procedure: Swiss albino mice (˜30-40 g) were first placed into their respective chambers with a 20 min pre-treatment recording. Only mice showing at least 50 counts/5 min are used in the experiments. Mice were administered saline (control), peptide (5 or 50 mg/kg) or morphine (50 mg/kg). Experimenters were blind to the identity of the drug solutions. […] Statistical comparison was done by 2-way ANOVA.
# acute high dose toxicity = format: in vivo, mice; conditions: mouse, in vivo; intravenous, mice
# Procedure: (§1) Acute toxicity was determined by both oral and intravenous administration of the peptide. Three mice were given a dose of peptide at 2 g/kg orally by gavage, 5 ml/kg.
# mice = experiment: acute high dose toxicity; format: in vivo
# Procedure: as §1
# C57 mice = format: in vivo; conditions: 8 or 80 mg/kg intraperitoneal once daily for 14 days
# Procedure: (§2) Swiss albino mice were administered with the peptide at 8 mg/kg or 80 mg/kg (intraperitoneal) once daily for 14 days. Control mice received saline. At the end of the period, all mice were killed, dissected and observed for any obvious abnormality. Weights of the major organs, including brain, heart, lung, liver, spleen and kidney, were recorded.
# The multiple dose toxicity testing was repeated exactly as described above except that C57 mice were used instead of Swiss albino mice. Similar results were obtained in terms of body weights, vital organ weights and behavior of control and treated animals (data not shown).
# [6] = pharmacokinetics: plasma concentration by LC/MS/MS after sublingual, intravenous, oral, intraperitoneal administration; format: in vivo, mice; conditions: mouse
# Procedure: The peptide (1, 5, 15 and 25 mg/kg, 0.5 ml/kg) was administered sublingually to mice. Upon reaching specified time points of 1, 5, 15, 30, 60 and 120 min post-dose, each mouse was sacrificed and blood samples were collected via cardiac puncture. Plasma samples were then extracted and analyzed under LC/MS/MS.
# Systemic exposure of the peptide was also studied through intravenous, oral (gavage) and intraperitoneal routes.
# Swiss albino mice [7] = experiment: toxicity, multiple dose regimen; format: in vivo; conditions: 8 or 80 mg/kg intraperitoneal daily, 14 days
# Procedure: as §2
# Swiss albino mice [8] = experiment: toxicity, single dose regimen; format: in vivo; conditions: single dose 8 or 80 mg/kg intraperitoneal, day 14
# Procedure: as §2, with “on day 1 and then observed” for “once daily”, “sacrificed,” for “killed,”
# rats [9] = conditions: 1 or 50 mg/kg intraperitoneal, vs saline control
# Description: The open field was divided into 16 equal size squares (25×25 cm). The 4 squares at the centre are assigned a low anxiety score (0) while those at the 4 corners are assigned a high anxiety score (2). The remaining 8 squares are assigned a medium score (1). A rat entering each square will be given the score assigned to that square. The sum total obtained within the 5-min test period divided by the number of squares entered is the anxiety score for that rat. Diazepam was used as positive control. Statistical comparison was done by Student's t-test.
# Sprague-Dawley rats = experiment: acute effect on blood pressure in anesthetized rats; format: in vivo; conditions: for effect on blood pressure: 5 and 20 mg/kg
# Procedure: Sprague-Dawley rats (˜300 g) were anesthetized and the carotid artery was cannulated for blood pressure measurement. Drugs were administered by the pre-determined route. A pulse transducer was secured across the thoracic region of the rat to allow measurement of respiration rate. Blood pressure was recorded for at least 15 min or until a relatively stable blood pressure was observed.
smiles,measurement,setting,value
NC(=O)CC[C@@H]1NC(=O)[C@H](Cc2ccccc2)NC(=O)[C@H](Cc2ccc(O)cc2)NC(=O)CCSSC[C@@H](C(=O)N2CCC[C@H]2C(=O)N[C@H](CCCN=C(N)N)C(=O)NCC(N)=O)NC(=O)[C@H](CC(N)=O)NC1=O [desmopressin],bioavailability by the sublingual route,[1],about 0.25%
CN1C(=O)CN=C(c2ccccc2)c2cc(Cl)ccc21 [diazepam],time spent in the open or closed arms,rats [2],reversed the times spent in open and closed arms
"CN1CC[C@]23c4c5ccc(O)c4O[C@H]2[C@@H](O)C=C[C@H]3[C@H]1C5 [morphine, reference compound]",GI motility (distance traveled by charcoal),Swiss albino mice [3],dose-dependently decreased GI motility
same,motor-coordination (time on rotarod),"Swiss albino mice [4]; mouse, in vivo",No statistical significant effects
same,locomotor activity vs control,"Swiss albino mice [5]; mouse, in vivo",significant increase in locomotive activities
CC[C@H](C)[C@@H]1NC(=O)[C@H](Cc2ccc(O)cc2)NC(=O)[C@@H](N)CSSC[C@@H](C(=O)N2CCC[C@H]2C(=O)N[C@@H](CC(C)C)C(=O)NCC(N)=O)NC(=O)[C@H](CC(N)=O)NC(=O)[C@H](CCC(N)=O)NC1=O [oxytocin],bioavailability,[1]; formulation including 0.75% w/w sodium taurocholate (tablet form),27%
same,bioavailability by the sublingual route,[1],0.007-0.07%
"C[C@@H](O)[C@H](NC(=O)[C@@H]1CCCN1C(=O)[C@H](Cc1ccccc1)NC(=O)[C@@H]1CCCN1C(=O)[C@@H](N)CC(N)=O)C(=O)N[C@@H](Cc1c[nH]c2ccccc12)C(=O)N[C@@H](CCCNC(=N)N)C(=O)N[C@@H](CCCCN)C(=O)N[C@@H](CCCNC(=N)N)C(=O)N1CCC[C@H]1C(=O)NCC(=O)O [the peptide, NPFPTWRKRPG] (H-NPFPTWRKRPG-OH; N-terminus and C-terminus assumed)",LD50 at 2 weeks,acute high dose toxicity,~125 mg/kg
same,clinical observation,mice; 62.5 mg/kg intravenous,appeared sedated
same,"clinical observation, surviving mice",mice; 125 mg/kg intravenous,appeared heavily sedated for several hours
same,clinical observation,mice; 2 g/kg oral by gavage,appeared sedated with much decreased activity
same,motor-coordination (time on rotarod),"Swiss albino mice [4]; 1 or 10 mg/kg sublingual, up to 3 h post-dose",No statistical significant effects
same,death,C57 mice,No death occurred
same,bioavailability,"[6]; 25 mg/kg, sublingual route, AUC compared to intravenous route",44%
same,Tmax,"[6]; after sublingual administration, read-out: time of highest level in the plasma (converted)",5 min
same,organ appearance,Swiss albino mice [7],All organs appeared normal
same,organ appearance,Swiss albino mice [8],All organs appeared normal
same,anxiety score,rats [9],did not show any effect
same,locomotor activity vs control,"Swiss albino mice [5]; 5 or 50 mg/kg, within 4 h of drug administration",no significant difference
same,effect on blood pressure,Sprague-Dawley rats; intravenous route,decreased in blood pressure
same,effect on blood pressure,Sprague-Dawley rats; sublingual or intraperitoneal routes,did not cause any changes in blood pressure
same,heart rate and respiration rate,"Sprague-Dawley rats; all experiments (5 and 20 mg/kg, all routes)",No significant changes
